Results as given in patent publication US9999650B2, “Peptide and peptidomimetic inhibitors” (Ra Pharmaceuticals, Inc., priority 2012, dated 2018).
Numbered stars: 1 amine (or outer) side, 2 acyl side, 3 side chain; on linkers, the order of the positions; unused ones are H or OH. Bridge positions count the residues as written; N and C are the ends. Square brackets hold non-standard residues; d marks the D form. Peptide text beside a SMILES is read from it. Trp(5-Cl) = N[C@@H](Cc1c[nH]c2ccc(Cl)cc12)C(=O)O; Phe(3-Cl) = N[C@@H](Cc1cccc(Cl)c1)C(=O)O; Phe(4-Cl) = N[C@@H](Cc1ccc(Cl)cc1)C(=O)O; X1 = O=C(C(N[*:1])C1CCc2ccccc2C1)[*:2]; mXylylene = c1cc(C[*:1])cc(C[*:2])c1; X2 = O=C(Cc1cccc(C[*:2])c1)[*:1]; Gly(cPr) = N[C@H](C(=O)O)C1CC1; dPhg = N[C@@H](C(=O)O)c1ccccc1; Chg = N[C@H](C(=O)O)C1CCCCC1; Pen = CC(C)(S)[C@H](N)C(=O)O; Phg = N[C@H](C(=O)O)c1ccccc1; Tle = CC(C)(C)[C@H](N)C(=O)O; Nle = CCCC[C@H](N)C(=O)O; Ac5c = NC1(C(=O)O)CCCC1; Dab = NCC[C@H](N)C(=O)O; Nva = CCC[C@H](N)C(=O)O; Aib = CC(C)(N)C(=O)O; Mpa = O=C(O)CCS

Target: T1, human plasma kallikrein (Homo sapiens, UniProt P03952)
T1 construct: purchased Enzyme Research Laboratories HPKa 1303
T1 sequence (P03952 20-390 limits assumed): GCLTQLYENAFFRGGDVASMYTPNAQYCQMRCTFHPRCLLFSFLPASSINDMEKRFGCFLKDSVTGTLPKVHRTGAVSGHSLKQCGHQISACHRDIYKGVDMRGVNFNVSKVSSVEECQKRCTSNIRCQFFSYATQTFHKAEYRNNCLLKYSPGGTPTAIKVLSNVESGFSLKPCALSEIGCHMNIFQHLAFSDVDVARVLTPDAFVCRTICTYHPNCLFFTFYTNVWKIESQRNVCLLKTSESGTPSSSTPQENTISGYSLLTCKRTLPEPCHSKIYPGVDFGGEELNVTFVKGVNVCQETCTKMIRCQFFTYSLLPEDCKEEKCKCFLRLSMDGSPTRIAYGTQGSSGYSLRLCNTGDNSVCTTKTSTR
T1 sequence (P03952 391-638 limits assumed): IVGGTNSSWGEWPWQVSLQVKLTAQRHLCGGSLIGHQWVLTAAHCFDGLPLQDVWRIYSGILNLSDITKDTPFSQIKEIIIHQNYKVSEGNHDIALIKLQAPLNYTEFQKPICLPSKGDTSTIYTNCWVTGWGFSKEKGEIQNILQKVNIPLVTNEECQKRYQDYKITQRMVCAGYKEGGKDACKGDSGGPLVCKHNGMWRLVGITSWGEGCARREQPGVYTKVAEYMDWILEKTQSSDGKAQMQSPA
Test: Enzyme inhibition assay (fluorogenic substrate H-Pro-Phe-Arg-AMC)
Format: biochemical
Conditions: Kallikrein inhibitory activity; 1 nM activated human kallikrein, 500 μM H-Pro-Phe-Arg-AMC, 1 hour room temperature; read-out: Avg. IC50
Method: Activated human plasma kallikrein (Enzyme Research Laboratories, HPKa 1303) was reacted with H-Pro-Phe-Arg-7-amido-4-methylcoumarin (H-Pro-Pre-Arg-AMC) (a fluorogenic substrate for plasma as well as pancreatic and urinary kallikreins; Bachem I-1295) and candidate inhibitory peptides to determine the IC50 of the inhibitor.
Ten 8-fold serial dilutions of peptides (10 mM DMSO stocks) were performed in DMSO and then added to TCNB (50 mM Tris-HCl pH 7.2, 150 mM NaCl, 10 mM CaCl2, 0.05% Brij-35) and sonicated. 50 μL of the peptide dilutions were added to microtitre plates (96 well, black non-binding surface, Corning, 3650) and incubated for 5 minutes at room temperature with 4 nM activated human kallikrein (final concentration after addition of fluorogenic substrate: 1 nM). The samples were then incubated for 1 hour at room temperature with 2 mM H-Pro-Phe-Arg-AMC (final concentration 500 μM). Relative Fluorescence Units (RFU) were measured at excitation/emission 360 nm/460 nm by a SpectraMax M3.

| Molecule | IC50 [nM] |
| --- | --- |
| CSCC[C@H](N)C(=O)N[C@@H](CS)C(=O)N[C@@H](CC(N)=O)C(=O)N[C@@H](Cc1ccc(O)cc1)C(=O)N[C@@H](Cc1c[nH]c2ccccc12)C(=O)N[C@@H](CO)C(=O)N1CCC[C@H]1C(=O)N[C@@H](Cc1c[nH]c2ccccc12)C(=O)N[C@H](C(=O)N[C@@H](CCC(=O)O)C(=O)N[C@@H](CS)C(=O)N[C@@H](CO)C(N)=O)[C@@H](C)O [Compound R2110, MCNYWSPWTECS-NH2] (H-MCNYWSPWTECS-NH2; N-terminus assumed) | 3.5 |
| CC(=O)N[C@@H](CS)C(=O)N[C@@H](CC(N)=O)C(=O)N[C@H](Cc1ccc(O)cc1)C(=O)N[C@@H](Cc1c[nH]c2ccccc12)C(=O)N[C@@H](CO)C(=O)N1CCC[C@H]1C(=O)N[C@@H](Cc1c[nH]c2ccccc12)C(=O)N[C@H](C(=O)N[C@@H](C)C(=O)N[C@@H](CS)C(N)=O)[C@@H](C)O [Compound R2232, Ac-CNyWSPWTAC-NH2] (Ac-CN[dY]WSPWTAC-NH2) | > 1950 |
| CC(C)(C)[C@H](NC(=O)[C@H](Cc1ccc(Cl)cc1)NC(=O)[C@@H]1CSCc2cccc(c2)CSCCC(=O)N2CCC[C@H]2C(=O)N[C@@H](c2ccccc2)C(=O)N1)C(N)=O [Compound R2205, [mXylyl(1,4)](des-NH2)C-P-Phg-C-4-Cl-Phe-Tbg-NH2] ([Mpa]P[Phg]C[Phe(4-Cl)][Tle]-NH2; linker 1-4 via mXylylene) | > 75000 |
| CC[C@H](C)[C@@H]1NC(=O)[C@H](C)NC(=O)[C@H](C)NC(=O)CCSCc2cccc(c2)CSC[C@@H](C(=O)N[C@@H](CCCNC(=N)N)C(=O)N[C@H](C(N)=O)C(C)C)NC1=O [Compound R2072, [mXylyl(1,5)](des-NH2)C-AAICRV-NH2] ([Mpa]AAICRV-NH2; linker 1-5 via mXylylene) | 13 |
| CC(C)(C)[C@H](NC(=O)[C@H](Cc1ccc(Cl)cc1)NC(=O)[C@@H]1CSCc2cccc(c2)CSCCC(=O)N2CCC[C@H]2C(=O)N[C@H](c2ccccc2)C(=O)N1)C(N)=O [Compound R2206, [mXylyl(1,4)](des-NH2)C-P-(D)Phg-C-4-Cl-Phe-Tbg-NH2] ([Mpa]P[dPhg]C[Phe(4-Cl)][Tle]-NH2; linker 1-4 via mXylylene) | > 75000 |
| CCC[C@H](N)C(=O)N[C@@H]1C(=O)N[C@@H](CCC(=O)O)C(=O)N[C@@H](CO)C(=O)N[C@@H]([C@@H](C)CC)C(=O)N[C@H](C(=O)N[C@@H](CCCNC(=N)N)C(=O)N[C@H](C(N)=O)C(C)C)C(C)(C)SCc2cccc(c2)CSC1(C)C [Compound R2034, [mXylyl(2,6)]Nvl-Pen-ESI-Pen-RV-NH2] (H-[Nva][Pen]ESI[Pen]RV-NH2; linker 2-6 via mXylylene) | > 100000 |
| Ac-YWSPWTECSA-NH2 [Compound R2118, Ac-YW SPWTECSA-NH2] | > 100000 |
| CC(C)(C)[C@H](NC(=O)[C@H](Cc1c[nH]c2ccc(Cl)cc12)NC(=O)[C@@H]1CSCc2cccc(c2)CSCCC(=O)N2CCC[C@H]2C(=O)N[C@@H](c2ccccc2)C(=O)N1)C(N)=O [Compound R2209, [mXylyl(1,4)](des-NH2)C-P-Phg-C-5-C1-Trp-Tbg-NH2] ([Mpa]P[Phg]C[Trp(5-Cl)][Tle]-NH2; linker 1-4 via mXylylene) | > 75000 |
| CC(C)(C)[C@H](NC(=O)[C@H](Cc1cccc(Cl)c1)NC(=O)[C@@H]1CSCc2cccc(c2)CSCCC(=O)N2CCC[C@H]2C(=O)N[C@@H](c2ccccc2)C(=O)N1)C(N)=O [Compound R2207, [mXylyl(1,4)](des-NH2)C-P-Phg-C-3-Cl-Phe-Tbg-NH2] ([Mpa]P[Phg]C[Phe(3-Cl)][Tle]-NH2; linker 1-4 via mXylylene) | > 75000 |
| CCCC[C@@H]1NC(=O)[C@@H](NC(C)=O)CSCc2cccc(c2)CSC[C@@H](C(=O)N[C@@H](CCCNC(=N)N)C(=O)N[C@H](C(N)=O)C(C)(C)C)NC(=O)[C@H](c2ccccc2)NC(=O)[C@H](CO)NC1=O [Compound R2065, [mXylyl(1,5)]Ac-C-Nle-S-Phg-CR-Tbg-NH2] (Ac-C[Nle]S[Phg]CR[Tle]-NH2; linker 1-5 via mXylylene) | 6.1 |
| CC(C)(C)[C@H](NC(=O)[C@H](CCCNC(=N)N)NC(=O)[C@@H]1CSCc2cccc(c2)CSCCC(=O)N2CCC[C@H]2C(=O)N[C@@H](c2ccccc2)C(=O)N1)C(N)=O [Compound R2188, [mXylyl(1,4)](des-NH2)C-P-Phg-CR-Tbg-NH2] ([Mpa]P[Phg]CR[Tle]-NH2; linker 1-4 via mXylylene) | 3.4 |
| CC(C)(C)[C@H](NC(=O)[C@H](CCN)NC(=O)[C@@H]1CSCc2cccc(c2)CSCCC(=O)N2CCC[C@H]2C(=O)N[C@@H](c2ccccc2)C(=O)N1)C(N)=O [Compound R2211, [mXylyl(1,4)](des-NH2)C-P-Phg-C-Dab-Tbg-NH2] ([Mpa]P[Phg]C[Dab][Tle]-NH2; linker 1-4 via mXylylene) | > 75000 |
| CNC(=O)[C@@H](NC(=O)[C@H](CCCNC(=N)N)NC(=O)[C@@H]1CSCc2cccc(c2)CSCCC(=O)NC2(CCCC2)C(=O)N[C@@H](C)C(=O)N[C@@H](C2CCCCC2)C(=O)N1)C(C)C [Compound R2178, [mXylyl(1,5)](des-NH2)C-(Cyclo-L)-A-Chg-CR-V-NHCH3] ([Mpa][Ac5c]A[Chg]CRV-NHMe; linker 1-5 via mXylylene) | 3.2 |
| CC(=O)N[C@H]1CSCc2cccc(c2)CSC[C@@H](C(=O)N[C@@H](CCCNC(=N)N)C(=O)N[C@H](C(N)=O)C2CC2)NC(=O)[C@H](c2ccccc2)NC(=O)[C@H](CO)NC(=O)[C@@H](C)NC1=O [Compound R2070, [mXylyl(1,5)]Ac-C-a-S-Phg-CR-Cppg-NH2] (Ac-C[dA]S[Phg]CR[Gly(cPr)]-NH2; linker 1-5 via mXylylene) | 118 |
| C[C@@H]1NC(=O)C(C)(C)NC(=O)CCSCc2cccc(c2)CSC[C@@H](C(=O)N[C@@H](CCCNC(=N)N)C(=O)N[C@H](C(N)=O)C(C)(C)C)NC(=O)[C@H](C2CCCCC2)NC1=O [Compound R2091, [mXylyl(1,5)](des-NH2)C-Aib-A-Chg-CR-Tbg-NH2] ([Mpa][Aib]A[Chg]CR[Tle]-NH2; linker 1-5 via mXylylene) | 3.2 |
| CC[C@H](C)[C@@H]1NC(=O)[C@H](CO)NC(=O)[C@H](CCC(=O)O)NC(=O)[C@@H](NC(=O)[C@@H](N)CCSC)CSCc2cccc(c2)CSC[C@@H](C(=O)N[C@@H](CCCNC(=N)N)C(=O)N[C@@H](CCC(=O)O)C(N)=O)NC1=O [Compound R2087, [mXylyl(2,6)]MCESICRE-NH2] (H-MCESICRE-NH2; linker 2-6 via mXylylene) | > 16600 |
| N=C(N)NCCC[C@H](NC(=O)[C@@H]1CSCc2cccc(c2)CSCCC(=O)N2CCC[C@H]2C(=O)N[C@@H](C2CCCCC2)C(=O)N1)C(=O)O [Compound R2195, [mXylyl(1,4)](des-NH2)C-P-Chg-CR-OH] ([Mpa]P[Chg]CR-OH; linker 1-4 via mXylylene) | > 175000 |

Next, values leading:

| IC50 [nM] | Molecule |
| --- | --- |
| > 100000 | CC(C)(C)[C@H](NC(=O)[C@H](CCCNC(=N)N)NC(=O)[C@@H]1CCOc2cccc(c2)OCCCC(=O)N2CCC[C@H]2C(=O)N[C@@H](C2CCCCC2)C(=O)N1)C(N)=O [Compound R2256] |
| 12.8 | CC(C)(C)[C@H](NC(=O)[C@H](CCCNC(=N)N)NC(=O)[C@@H]1CSCc2cccc(c2)CSCCC(=O)N2CCC[C@H]2C(=O)NC(C2CCc3ccccc3C2)C(=O)N1)C(N)=O (stereo partly shown) [Compound R2267] ([Mpa]P[X1]CR[Tle]-NH2; linker 1-4 via mXylylene) |
| 1460 | CC(C)(C)[C@H](NC(=O)[C@H](CCCNC(=N)N)NC(=O)[C@@H]1CSCc2cccc(c2)/C=C/CC(=O)N2CCC[C@H]2C(=O)N[C@@H](C2CCCCC2)C(=O)N1)C(N)=O [Compound R2259] |
| > 100000 | CC(C)(C)[C@H](NC(=O)[C@H](CCCNC(=N)N)NC(=O)[C@@H]1CCc2cn(nn2)CCCCCC(=O)N2CCC[C@H]2C(=O)N[C@@H](C2CCCCC2)C(=O)N1)C(N)=O [Compound R2254] |
| > 100000 | CC(C)(C)[C@H](NC(=O)[C@H](CCCNC(=N)N)NC(=O)[C@@H]1COCc2cn(nn2)CCCCC(=O)N2CCC[C@H]2C(=O)N[C@@H](C2CCCCC2)C(=O)N1)C(N)=O [Compound R2252] |
| > 25000 | CC(C)(C)[C@H](NC(=O)[C@H](CCCNC(=N)N)NC(=O)[C@@H]1COc2cccc(c2)OCCCC(=O)N2CCC[C@H]2C(=O)N[C@@H](C2CCCCC2)C(=O)N1)C(N)=O [Compound R2255] |
| 498 | CC(C)(C)[C@H](NC(=O)[C@H](CCCNC(=N)N)NC(=O)[C@@H]1CSCc2cccc(c2)CC(=O)NCCC(=O)N2CCC[C@H]2C(=O)N[C@@H](C2CCCCC2)C(=O)N1)C(N)=O [Compound R2258] |
| > 100000 | CC(C)(C)[C@H](NC(=O)[C@H](CCCNC(=N)N)NC(=O)[C@@H]1CCCc2cccc(c2)OCCCC(=O)N2CCC[C@H]2C(=O)N[C@@H](C2CCCCC2)C(=O)N1)C(N)=O [Compound R2263] |
| 1100 | CC(C)(C)[C@H](NC(=O)[C@H](CCCNC(=N)N)NC(=O)[C@@H]1CSCc2cccc(c2)CC(=O)N[C@@H](CCC(=O)O)C(=O)N2CCC[C@H]2C(=O)N[C@@H](C2CCCCC2)C(=O)N1)C(N)=O [Compound R2264] (EP[Chg]CR[Tle]-NH2; linker N-4 via X2) |
| > 100000 | CC(C)(C)[C@H](NC(=O)[C@H](CCCNC(=N)N)NC(=O)[C@@H]1CCCn2cc(nn2)CCCCC(=O)N2CCC[C@H]2C(=O)N[C@@H](C2CCCCC2)C(=O)N1)C(N)=O [Compound R2248] |
| > 100000 | CC(C)(C)[C@H](NC(=O)[C@H](CCCNC(=N)N)NC(=O)[C@@H]1CCn2cc(nn2)CCCCCC(=O)N2CCC[C@H]2C(=O)N[C@@H](C2CCCCC2)C(=O)N1)C(N)=O [Compound R2251] |
